The nature of this series: Average weight changes in H460 model. The format is in vivo. The conditions noted are these: SCID mice, tracked 21 days, weight loss also in vehicle group, FIG. 1B. The procedure:
In this study, each study group included 8 SCID mice with H460 xenograft. Each group received vehicle (once per week), talazoparib (0.3 mg/kg, one does per day for 4-5 days per week), SDC-TRAP-0063 (100 mg/kg, once per week), or a combination therapy of SDC-TRAP-0063 (100 mg/kg, once per week) and talazoparib (0.3 mg/kg, 5 days per week).
Average weight changes were also tracked for 21 days and the results for the groups treated with talazoparib, SDC-TRAP-0063, and a combination of SDC-TRAP-0063 and talazoparib were shown in FIG. 1B.

The source of these data is patent US11491145B2, “Combination therapies comprising targeted therapeutics” (priority 2017, dated 2022).

Structures are written as SMILES.

Consider `Cn1ncnc1[C@H]1c2n[nH]c(=O)c3cc(F)cc(c23)N[C@@H]1c1ccc(F)cc1` [talazoparib, Talazoparib], for which the “average weight changes (weight loss)” value is “Weight loss was observed”.
